Measured values taken from patent US12214036B2, “Combination therapy comprising AXL/MER and PD-1/PD-L1 inhibitors” (Incyte Corporation, priority 2020, dated 2025).

Key:
[1] = molecular target: T1, MER (Homo sapiens, UniProt Q12866); test: TR-FRET kinase assay, cMER; type: biochemical
T1 construct: recombinant phosphorylated forms of the kinase domains for AXL, MER and TYRO3; purchased Carna Biosciences 08-108
T1 sequence (Q12866 587-858 limits assumed): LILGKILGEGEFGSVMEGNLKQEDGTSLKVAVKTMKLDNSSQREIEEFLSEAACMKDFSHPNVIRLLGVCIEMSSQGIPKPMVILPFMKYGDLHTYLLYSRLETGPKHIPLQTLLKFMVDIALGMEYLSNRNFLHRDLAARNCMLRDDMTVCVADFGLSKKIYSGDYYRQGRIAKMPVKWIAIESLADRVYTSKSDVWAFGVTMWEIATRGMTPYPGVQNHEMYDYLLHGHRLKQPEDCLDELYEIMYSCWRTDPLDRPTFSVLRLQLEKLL
Protocol: The biochemical potency of Compound 1 to inhibit the enzymatic activity of TAM family members was investigated by TR-FRET assays using recombinant phosphorylated forms of the kinase domains for AXL, MER and TYRO3.
Phospho-AXL (pAXL), cMER and Tyro3 kinase activities were measured by time-resolved fluorescence energy transfer (TR-FRET) assays. Autophosphorylation of AXL was carried out before the kinase assay by incubating the recombinant AXL protein (ThermoFisher Scientific; #PV4275) in buffer containing 50 mM Tris, pH 7.5, 0.2 mg/mL AXL, 5 mM ATP, 20 mM MgCl2 and 2 mM dithiothreitol (DTT) at room temperature for 1 hour. […] The plate was incubated for 30 minutes at room temperature, and homogenous time resolved fluorescence (HTRF) signal was measured on a PheraStar FS plate reader (BMG Labtech, Ortenberg, Germany). Percent inhibition was calculated for each concentration, and half maximal inhibitory concentration (IC50) value was generated from curve fitting with GraphPad Prism software (San Diego, Calif.).
Compound reversibility was determined by measuring the recovery of cMER enzymatic activity after a rapid and large dilution of the cMER-inhibitor complex. cMER, ATP, and biotin-labeled peptide substrate were diluted in kinase assay buffer containing 50 mM HEPES, pH 7.5, 10 mM MgCl2, 1 mM EGTA, 0.01% NP-40, and 2 mM DTT. […]

[2] = tested on: human PBMCs co-cultured with H1299 cells; test: H1299 / PBMC co-culture cytokine assay; type: cell-based; conditions: 4 days
Protocol: The ability of Compound 1 to cooperate with checkpoint blockade to further boost antitumor responses was evaluated. H1299 lung cancer cells were co-cultured with stimulated human PBMCs treated with Compound 1, anti-human programmed cell death (PD)-1 antibody retifanlimab or the combination, and production of proinflammatory cytokines was assessed in two different experiments (FIG. 6).
H1299 cells were co-cultured with human PBMCs, each at 4 or 16×10^4 cells/mL in RPMI containing 10% FBS, 100 U/mL of penicillin-streptomycin (ThermoFisher Scientific; #15140-122) and 1× beta-mercaptoethanol (ThermoFisher Scientific; #21985-023). Compound 1 or retifanlimab were added as single agents or in combination to the cells. Anti-CD3 (BD Biosciences #555336), anti-CD28 (BD Biosciences #555725) or SEA (Toxin Technology, Sarasota, Fla.; #AT101red) were added at a final concentration of 1 μg/mL, 0.5 μg/mL or 100 ng/mL, respectively, to stimulate cell growth. Cultures were incubated at 37° C. in 5% CO2 incubator for 4 days. The supernatant was collected for cytokine analysis using a multiplex assay system (custom human ProcartaPlex Luminex kit, ThermoFisher Scientific; #PPX-15-MXRWE6P).

CC(C)C(=O)N1CCC(c2cc(-c3ccc(NC(=O)c4cn(C(C)C)c(=O)n(-c5ccccn5)c4=O)cc3)c3c(N)ncnn23)CC1 [Compound 1, N-(4-(4-Amino-7-(1-isobutyrylpiperidin-4-yl)pyrrolo[1,2-f][1,2,4]triazin-5-yl)phenyl)-1-isopropyl-2,4-dioxo-3-(pyridin-2-yl)-1,2,3,4-tetrahydropyrimidine-5-carboxamide]
mode of inhibition with respect to ATP concentration ([1]; MER kinase assay, IC50 at 25, 100, 300, 1000 μM ATP (FIG. 1)): ATP-competitive mode of inhibition | IC50 ([1]; average from multiple lots, n=25, read-out: IC50 against MER): 3.17 ± 1.97 nM | proinflammatory cytokine production ([2]; stimulated PBMCs + H1299, FIG. 6): induction of proinflammatory cytokines | induction of IFN-γ ([2]; stimulated PBMCs + H1299, FIG. 6B): induced | induction of tumor necrosis factor-α ([2]; stimulated PBMCs + H1299, FIG. 6C): induced | induction of granulocyte-macrophage colony-stimulating factor ([2]; stimulated PBMCs + H1299, FIG. 6D): induced | induction of IL-12 p70 ([2]; stimulated PBMCs + H1299, FIG. 6E): moderately induced
